# Laboratory results as given in article PMC4147587, “Synthesis and Analgesic Effects of μ-TRTX-Hhn1b on Models of Inflammatory and Neuropathic Pain” (Toxins, 2014).
# Read-outs that look alike come from different tables or passages of the source.
# System: motor coordination of rats (latency to fall off the rotarod)
# Assay type: in vivo, rat (Sprague-Dawley)
# Details: vs baseline, n = 6
# Method: Motor activity was assessed using a rotarod apparatus for rats (Coulbourn Instruments, Lehigh Valley, PA, USA). The rotarod might be set at any speed from 0 to 50 rpm. For motor coordination assessment, rats were trained for 2 days by walking them each day on an accelerating rotarod from 4 to 40 rpm for 10 min. […] Motor performance was considered as the latency to fall off the rotarod apparatus determined from the mean time in three trials for each rat at each time.
structure (smiles),measurement,setting,value
CC[C@H](C)[C@H](NC(=O)[C@H](CCC(=O)O)NC(=O)[C@H](Cc1ccc(O)cc1)NC(=O)[C@H](CCCCN)NC(=O)[C@@H]1CSSC[C@@H]2NC(=O)[C@H](CCC(N)=O)NC(=O)[C@H](CC(=O)O)NC(=O)[C@H](CC(N)=O)NC(=O)[C@H](CO)NC(=O)[C@@H]3CCCN3C(=O)[C@H](CC(N)=O)NC(=O)[C@@H]3CSSC[C@H](NC(=O)[C@H](C(C)C)NC(=O)[C@H](CC(C)C)NC(=O)[C@H](CC(N)=O)NC(=O)[C@H](CO)NC(=O)[C@H](CO)NC(=O)[C@H](CCCCN)NC(=O)[C@H](CSSC[C@H](NC(=O)[C@@H](N)CCC(=O)O)C(=O)N[C@@H](CC(C)C)C(=O)NCC(=O)N[C@@H](Cc4ccccc4)C(=O)NCC(=O)N[C@@H](CCCCN)C(=O)NCC(=O)N3)NC2=O)C(=O)N[C@@H](CO)C(=O)N[C@@H](CCCNC(=N)N)C(=O)N[C@@H](CCCCN)C(=O)N[C@@H](Cc2c[nH]cn2)C(=O)N[C@@H](CCCNC(=N)N)C(=O)N[C@@H](Cc2c[nH]c3ccccc23)C(=O)N1)C(N)=O [μ-TRTX-Hhn1b],latency to fall off the rotarod,"0.1 mg/kg, 30 min and 90 min after administration",no significant change in latencies to fall off the rotarod
same,latency to fall off the rotarod,"0.2 mg/kg, 30 min after administration, p < 0.05",significantly (p < 0.05) reduced latencies
same,latency to fall off the rotarod,"0.2 mg/kg, 90 min after administration",not at 90 min
